Patent US10125098B2, “Therapeutic compounds and methods of use thereof” (GENENTECH, INC., priority 2014, dated 2018)
Counter-ions that a name gives are not always drawn. Like-named read-outs stand apart in the source and are kept apart here.

Assays:
[1] = target: T1, hNav1.7 (Homo sapiens, UniProt Q15858); assay: Tritiated compound binding (LBA) to membranes from cells expressing hNav1.7 and the β1 subunit, competitive binding; conditions: competitive binding vs 100 pM [3H]compound, 18 h, room temperature, membranes with hNav1.7 and β1 subunit
T1 construct: expressed in transfected cells
Method in brief: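 Membranes from cells expressing hNav1.7 with β1 were incubated 18 h at room temperature with 100 pM tritiated formula (I) compound and increasing test compound, in 100 mM NaCl, 20 mM Tris HCl pH 7.4, 0.01% BSA.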

[2] = target: T2, human NaV1.7 (Homo sapiens, UniProt Q15858); assay: Patch voltage clamp electrophysiology assay (EP), NaV1.7; type: cell-based; conditions: HEK-293 cells stably expressing NaV1.7 with β1 subunit; whole-cell patch clamp, membrane potential −60 mV (inactivated state)
T2 construct: permanently transfected with an expression vector containing the full-length cDNA coding for the desired human sodium channel α-subunit; expressed in transfected cells; host or cells: HEK-293
Method in brief: (§1)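 HEK-293 cells stably expressing human α-subunit with β1; whole-cell patch clamp (PatchXpress or manual), ambient temperature, pH 7.4 external NaCl, CsF internal. Held at −60 mV (full inactivation), stepped to −150 mV for 20 ms, then test pulse; percent current decrease after compound wash-on taken as block.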

[3] = target: T3, NaV1.5 (Homo sapiens, UniProt Q14524); assay: Patch voltage clamp electrophysiology assay (EP), NaV1.5; type: cell-based; conditions: HEK-293 cells stably expressing NaV1.5 with β1 subunit, whole-cell patch clamp, membrane potential −60 mV (inactivated state)
T3 construct: permanently transfected with an expression vector containing the full-length cDNA coding for the desired human sodium channel α-subunit; expressed in transfected cells; host or cells: HEK-293
Method in brief: as §1

[4] = human, HEK-293 cells stably expressing human NaV1.5 with β1 subunit, pH 7.4

T3 sequence (Q14524 whole entry): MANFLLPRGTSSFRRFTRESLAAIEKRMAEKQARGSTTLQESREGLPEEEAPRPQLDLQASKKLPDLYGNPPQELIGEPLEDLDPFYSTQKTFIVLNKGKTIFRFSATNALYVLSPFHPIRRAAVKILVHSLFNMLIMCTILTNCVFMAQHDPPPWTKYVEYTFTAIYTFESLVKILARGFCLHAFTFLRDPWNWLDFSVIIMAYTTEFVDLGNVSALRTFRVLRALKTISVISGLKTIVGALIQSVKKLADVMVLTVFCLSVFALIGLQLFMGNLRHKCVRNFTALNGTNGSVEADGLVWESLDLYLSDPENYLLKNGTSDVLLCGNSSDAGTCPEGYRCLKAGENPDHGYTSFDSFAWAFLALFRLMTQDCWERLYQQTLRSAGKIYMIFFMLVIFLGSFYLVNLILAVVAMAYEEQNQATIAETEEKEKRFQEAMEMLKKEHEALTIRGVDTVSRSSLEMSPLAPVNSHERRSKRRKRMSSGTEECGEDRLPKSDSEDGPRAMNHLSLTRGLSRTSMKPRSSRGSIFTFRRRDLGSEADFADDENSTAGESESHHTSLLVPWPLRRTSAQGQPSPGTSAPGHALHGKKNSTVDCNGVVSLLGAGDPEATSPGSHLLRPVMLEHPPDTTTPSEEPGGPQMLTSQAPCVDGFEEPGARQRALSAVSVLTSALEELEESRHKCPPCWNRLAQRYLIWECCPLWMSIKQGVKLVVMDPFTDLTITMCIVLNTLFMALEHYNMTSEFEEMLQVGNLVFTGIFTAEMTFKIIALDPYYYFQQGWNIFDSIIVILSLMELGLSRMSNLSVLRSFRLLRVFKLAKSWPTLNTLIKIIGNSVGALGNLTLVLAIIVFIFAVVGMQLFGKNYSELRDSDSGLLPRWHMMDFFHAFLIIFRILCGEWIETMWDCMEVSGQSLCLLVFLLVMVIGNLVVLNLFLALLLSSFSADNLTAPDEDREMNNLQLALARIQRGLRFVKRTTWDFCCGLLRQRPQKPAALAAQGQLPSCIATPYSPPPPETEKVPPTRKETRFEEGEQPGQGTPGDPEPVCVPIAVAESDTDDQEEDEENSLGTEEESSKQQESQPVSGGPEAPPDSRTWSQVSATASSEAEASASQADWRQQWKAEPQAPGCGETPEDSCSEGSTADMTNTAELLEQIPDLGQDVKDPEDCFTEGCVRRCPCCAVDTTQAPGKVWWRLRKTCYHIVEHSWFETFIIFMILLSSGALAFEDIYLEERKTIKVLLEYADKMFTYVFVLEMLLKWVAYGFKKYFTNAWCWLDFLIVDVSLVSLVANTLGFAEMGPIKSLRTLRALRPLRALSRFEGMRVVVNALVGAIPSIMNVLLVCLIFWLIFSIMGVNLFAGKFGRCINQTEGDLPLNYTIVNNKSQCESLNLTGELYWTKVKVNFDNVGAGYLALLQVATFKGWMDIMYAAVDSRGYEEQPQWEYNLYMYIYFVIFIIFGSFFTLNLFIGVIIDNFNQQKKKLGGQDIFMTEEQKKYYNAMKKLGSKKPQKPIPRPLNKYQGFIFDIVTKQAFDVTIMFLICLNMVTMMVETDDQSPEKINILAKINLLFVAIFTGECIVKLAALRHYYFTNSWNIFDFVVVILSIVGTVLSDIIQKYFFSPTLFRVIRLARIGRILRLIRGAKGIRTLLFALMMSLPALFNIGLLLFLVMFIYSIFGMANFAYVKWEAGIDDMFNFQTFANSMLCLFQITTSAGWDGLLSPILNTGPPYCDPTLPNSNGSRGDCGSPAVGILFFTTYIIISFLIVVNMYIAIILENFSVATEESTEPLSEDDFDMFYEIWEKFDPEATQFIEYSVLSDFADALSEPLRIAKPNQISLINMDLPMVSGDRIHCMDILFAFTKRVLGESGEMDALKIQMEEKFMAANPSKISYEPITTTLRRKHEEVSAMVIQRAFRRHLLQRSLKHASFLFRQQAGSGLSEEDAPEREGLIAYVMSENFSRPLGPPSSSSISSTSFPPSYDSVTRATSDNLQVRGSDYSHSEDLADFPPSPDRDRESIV
T2 sequence (Q15858 1-1977 isoform Q15858-3): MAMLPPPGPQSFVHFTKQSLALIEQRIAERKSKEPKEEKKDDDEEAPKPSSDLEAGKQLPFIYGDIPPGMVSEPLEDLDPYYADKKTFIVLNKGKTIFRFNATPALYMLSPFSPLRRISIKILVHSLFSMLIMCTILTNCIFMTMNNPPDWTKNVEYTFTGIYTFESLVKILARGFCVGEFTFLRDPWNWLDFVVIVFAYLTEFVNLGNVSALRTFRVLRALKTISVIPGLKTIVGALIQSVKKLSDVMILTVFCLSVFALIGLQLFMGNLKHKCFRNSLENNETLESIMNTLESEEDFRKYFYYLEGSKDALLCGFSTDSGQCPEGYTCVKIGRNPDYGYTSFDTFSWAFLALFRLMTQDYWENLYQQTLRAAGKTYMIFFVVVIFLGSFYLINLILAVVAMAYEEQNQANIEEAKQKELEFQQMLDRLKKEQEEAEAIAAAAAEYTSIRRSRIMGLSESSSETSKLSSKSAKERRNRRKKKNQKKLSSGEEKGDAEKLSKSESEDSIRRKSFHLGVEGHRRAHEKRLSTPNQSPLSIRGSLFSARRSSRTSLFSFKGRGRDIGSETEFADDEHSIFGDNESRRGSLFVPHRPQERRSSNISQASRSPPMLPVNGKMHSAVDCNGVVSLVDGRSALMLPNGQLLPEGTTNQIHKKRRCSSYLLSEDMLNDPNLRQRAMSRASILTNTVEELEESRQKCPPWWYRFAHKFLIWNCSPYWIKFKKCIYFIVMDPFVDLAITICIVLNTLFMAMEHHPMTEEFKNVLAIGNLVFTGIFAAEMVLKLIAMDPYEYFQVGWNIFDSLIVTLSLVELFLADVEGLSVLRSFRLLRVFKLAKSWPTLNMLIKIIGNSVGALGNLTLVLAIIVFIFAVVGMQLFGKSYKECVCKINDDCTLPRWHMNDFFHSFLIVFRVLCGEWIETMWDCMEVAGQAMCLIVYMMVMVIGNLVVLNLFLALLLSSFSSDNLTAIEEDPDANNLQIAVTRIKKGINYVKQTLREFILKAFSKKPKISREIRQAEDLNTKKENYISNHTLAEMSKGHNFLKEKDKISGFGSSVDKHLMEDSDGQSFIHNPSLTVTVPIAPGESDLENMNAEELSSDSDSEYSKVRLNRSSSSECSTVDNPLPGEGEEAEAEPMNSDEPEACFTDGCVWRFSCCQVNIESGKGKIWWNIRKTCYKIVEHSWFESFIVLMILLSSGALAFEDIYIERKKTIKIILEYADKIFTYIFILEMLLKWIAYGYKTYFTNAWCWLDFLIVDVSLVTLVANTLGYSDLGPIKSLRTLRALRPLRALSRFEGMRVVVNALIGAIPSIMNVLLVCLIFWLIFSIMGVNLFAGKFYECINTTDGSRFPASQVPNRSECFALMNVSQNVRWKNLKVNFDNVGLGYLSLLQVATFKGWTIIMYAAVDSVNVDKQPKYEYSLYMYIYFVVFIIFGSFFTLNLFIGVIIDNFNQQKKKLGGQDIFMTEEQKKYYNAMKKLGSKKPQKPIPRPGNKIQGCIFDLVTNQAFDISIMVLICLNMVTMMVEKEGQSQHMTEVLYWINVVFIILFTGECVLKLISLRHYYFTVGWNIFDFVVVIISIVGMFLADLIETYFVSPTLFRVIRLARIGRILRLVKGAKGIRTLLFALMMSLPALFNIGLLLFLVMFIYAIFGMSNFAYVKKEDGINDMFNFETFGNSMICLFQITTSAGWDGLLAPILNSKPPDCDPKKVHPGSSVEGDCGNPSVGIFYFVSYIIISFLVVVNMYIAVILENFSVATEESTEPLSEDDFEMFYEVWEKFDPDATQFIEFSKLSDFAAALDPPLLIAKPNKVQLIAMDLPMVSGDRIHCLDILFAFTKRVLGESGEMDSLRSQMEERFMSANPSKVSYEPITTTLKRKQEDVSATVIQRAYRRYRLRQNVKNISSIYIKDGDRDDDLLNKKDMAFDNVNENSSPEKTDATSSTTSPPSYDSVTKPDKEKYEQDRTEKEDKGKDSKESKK
T2 sequence (Q07699 19-218 partner): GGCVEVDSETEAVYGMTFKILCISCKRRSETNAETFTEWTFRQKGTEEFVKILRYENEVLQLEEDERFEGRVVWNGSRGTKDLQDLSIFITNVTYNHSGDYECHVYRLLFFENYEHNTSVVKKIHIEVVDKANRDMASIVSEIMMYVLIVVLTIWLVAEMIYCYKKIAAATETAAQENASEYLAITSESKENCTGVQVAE
T1 sequence (Q15858 1-1977 isoform Q15858-3): as the sequence (Q15858 1-1977 isoform Q15858-3) above
T1 sequence (Q07699 19-218 partner): as the sequence (Q07699 19-218 partner) above

IC50 [1] | IC50 [2] | Compound | IC50 ([3]; read-out: Nav1.5) | IC50 [3, 4]
68 nM | 900 nM | CC1(C)SCN(C(=O)c2cc(C3CC3)c(OCC34CC5CC(CC(C5)C3)C4)cc2F)[C@@H]1C(=O)O [Example 155, (4R)-3-[4-(1-adamantylmethoxy)-5-cyclopropyl-2-fluoro-benzoyl]-5,5-dimethyl-thiazolidine-4-carboxylic acid] | 9300 nM | –
590 nM | 1500 nM | O=C(O)[C@@H]1CCCN1C(=O)c1cc(C2CC2)c(OC2C3CC4CC2CC(Cl)(C4)C3)cc1F (single isomer, unassigned) [Example 80] | – | ≥ 30000 nM
56 nM | 1300 nM | CC[C@H](NC(=O)c1cc(C2CC2)c(OCC23CC4CC(CC(C4)C2)C3)cc1F)C(=O)O [Example 87, (S)-2-(4-(adamantan-1-ylmethoxy)-5-cyclopropyl-2-fluorobenzamido)butanoic acid] | 7100 nM | –
220 nM | 1900 nM | C[C@@H]1[C@H](F)CN(C(=O)c2cc(C3CC3)c(OCC34CC5CC(CC(C5)C3)C4)cc2F)[C@@H]1C(=O)O [Example 210a, (2S,3S,4S)-1-(4-(adamantan-1-ylmethoxy)-5-cyclopropyl-2-fluorobenzoyl)-4-fluoro-3-methylpyrrolidine-2-carboxylic acid] | 27000 nM | –
250 nM | 1500 nM | C[C@@H]1SCN(C(=O)c2cc(C3CC3)c(OCC34CC5CC(CC(C5)C3)C4)cc2F)[C@@H]1C(=O)O [Example 142a, (4R,5S)-3-[4-(1-adamantylmethoxy)-5-cyclopropyl-2-fluoro-benzoyl]-5-methyl-thiazolidine-4-carboxylic acid] | 17000 nM | –
19.6 nM | 13.5 nM | O=C(O)[C@@H]1CCCN1C(=O)c1cc(C2CC2)c(OCC23CC4CC(CC(C4)C2)C3)cc1F [Example 1, (S)-1-(4-(adamantan-1-ylmethoxy)-5-cyclopropyl-2-fluorobenzoyl)pyrrolidine-2-carboxylic acid] | 3500 nM | –
90 nM | 750 nM | CC1O[C@H](C)[C@@H](C(=O)O)N1C(=O)c1cc(C2CC2)c(OCC23CC4CC(CC(C4)C2)C3)cc1F (stereo partly drawn) [Example 166, (4S,5R)-3-[4-(1-adamantylmethoxy)-5-cyclopropyl-2-fluoro-benzoyl]-2,5-dimethyl-oxazolidine-4-carboxylic acid] | 13000 nM | –
120 nM | 4000 nM | O=C(N[C@@H](CC1CC1)C(=O)O)c1cc(C2CC2)c(OCC23CC4CC(CC(C4)C2)C3)cc1F [Example 189, (S)-2-(4-((3S,5S,7S)-adamantan-1-ylmethoxy)-5-cyclopropyl-2-fluorobenzamido)-3-cyclopropylpropanoic acid] | 15000 nM | –
58 nM | 780 nM | CC1(C)CCN(C(=O)c2cc(C3CC3)c(OCC34CC5CC(CC(C5)C3)C4)cc2F)C1C(=O)O (stereo in doubt) [Example 151, (2R)-1-[4-(1-adamantylmethoxy)-5-cyclopropyl-2-fluoro-benzoyl]-3,3-dimethyl-pyrrolidine-2-carboxylic acid] | 5200 nM | –
58 nM | 620 nM | O=C(c1cc(C2CC2)c(OCC23CC4CC(CC(C4)C2)C3)cc1F)N1CCC[C@H]1c1nnn[nH]1 [Example 54, ((S)-2-(1H-tetrazol-5-yl)pyrrolidin-1-yl)(4-(adamantan-1-ylmethoxy)-5-cyclopropyl-2-fluorophenyl)methanone] | 9700 nM | –
430 nM | 2100 nM | C[C@@H](O)[C@H](NC(=O)c1cc(C2CC2)c(OCC23CC4CC(CC(C4)C2)C3)cc1F)C(=O)O [Example 57] | 23000 nM | –
560 nM | 7800 nM | O=C(O)[C@@H]1C[C@@H](F)CN1C(=O)c1c(F)cc(OCC23CC4CC(CC(C4)C2)C3)cc1C1CC1 [Example 204, (2S,4R)-1-(4-(adamantan-1-ylmethoxy)-2-cyclopropyl-6-fluorobenzoyl)-4-fluoropyrrolidine-2-carboxylic acid] | 23000 nM | –
30 nM | 810 nM | C[C@H]1[C@H](F)CN(C(=O)c2cc(C3CC3)c(OCC34CC5CC(CC(C5)C3)C4)cc2F)[C@@H]1C(=O)O [Example 210b, (2S,3R,4S)-1-(4-(adamantan-1-ylmethoxy)-5-cyclopropyl-2-fluorobenzoyl)-4-fluoro-3-methylpyrrolidine-2-carboxylic acid] | 17000 nM | –
10 nM | 300 nM | C[C@H]1CCN(C(=O)c2cc(C3CC3)c(OCC34CC5CC(CC(C5)C3)C4)cc2F)[C@@H]1C(=O)O [Example 149, (2S,3S)-1-[4-(1-adamantylmethoxy)-5-cyclopropyl-2-fluoro-benzoyl]-3-methyl-pyrrolidine-2-carboxylic acid] | 17000 nM | –
160 nM | 1100 nM | O=C(O)[C@@H]1[C@H](O)CCN1C(=O)c1cc(C2CC2)c(OCC23CC4CC(CC(C4)C2)C3)cc1F [Example 62, (2S, 3R)-1-(4-((adamantan-1-yl)methoxy)-5-cyclopropyl-2-fluorobenzoyl)-3-hydroxypyrrolidine-2-carboxylic acid] | 28000 nM | –

Second part, the compound before the results:

Compound | IC50 [1] | IC50 [2] | IC50 ([3]; read-out: Nav1.5) | IC50 [3, 4]
Cc1nn(C2CCN(c3ccc(Cl)c(C(F)(F)F)n3)CC2)c2cc(F)c(C(=O)N3CCC[C@H]3C(=O)O)cc12 [Example 195, (S)-1-(1-(1-(5-chloro-6-(trifluoromethyl)pyridin-2-yl)piperidin-4-yl)-6-fluoro-3-methyl-1H-indazole-5-carbonyl)pyrrolidine-2-carboxylic acid trifluoroacetate] | 1900 nM | 5900 nM | – | ≥ 30000 nM
CC(C)Nc1ccc(F)cc1CN1CCC(COc2cc(F)c(C(=O)N3C[C@H](F)C[C@H]3C(=O)O)cc2C2CC2)CC1 [Example 107, (2S,4R)-1-(5-cyclopropyl-2-fluoro-4-((1-(5-fluoro-2-(isopropylamino)benzyl)-piperidin-4-yl)methoxy)benzoyl)-4-fluoropyrrolidine-2-carboxylic acid] | 39 nM | 730 nM | 12000 nM | –
O=C(O)[C@@H]1CCCN1C(=O)c1cc(C2CC2)c(OC2C3CC4CC(C3)CC2C4)cc1F (stereo partly drawn) [Example 70, (S)-1-(4-(adamantan-2-yloxy)-5-cyclopropyl-2-fluorobenzoyl)pyrrolidine-2-carboxylic acid] | 310 nM | 1600 nM | – | ≥ 30000 nM
C[C@H]1OCN(C(=O)c2cc(C3CC3)c(OCC3CCN(Cc4c(Cl)cccc4Cl)CC3)cc2F)[C@@H]1C(=O)O [Example 224, (4S,5R)-3-(5-cyclopropyl-4-((1-(2,6-dichlorobenzyl)piperidin-4-yl)methoxy)-2-fluorobenzoyl)-5-methyloxazolidine-4-carboxylic acid] | 14 nM | 100 nM | 22000 nM | –
O=C(O)[C@@H]1C[C@@H](F)CN1C(=O)c1cc(C2CC2)c(OCC2CCN([C@@H](c3cc(Cl)cc(Cl)c3)C(F)(F)F)CC2)cc1F (single isomer, unassigned) [Example 140b] | 21 nM | 160 nM | 3700 nM | –
O=C(N[C@H](C(=O)O)C1CC1)c1cc(C2CC2)c(OCC2CCN([C@H](c3ccccc3)c3cc(Cl)cc(Cl)c3)CC2)cc1F (single isomer, unassigned) [Example 118] | 21 nM | 760 nM | 15000 nM | –
CC(C)COc1ncc(Oc2cc(F)c(C(=O)N3CCC[C@H]3C(=O)O)cc2C2CC2)cc1C1CC1 [Example 98, (5-cyclopropyl-4-((5-cyclopropyl-6-isobutoxypyridin-3-yl)oxy)-2-fluorobenzoyl)-L-proline trifluoroacetic acid salt and (4-((5-chloro-6-isobutoxypyridin-3-yl)oxy)-5-cyclopropyl-2-fluorobenzoyl)-L-proline trifluoroacetic acid salt] | 440 nM | 740 nM | – | ≥ 30000 nM
O=C(O)[C@@H]1CCCN1C(=O)c1cc(C2CC2)c(CN2CC(Oc3cc(Cl)cc(Cl)c3)C2)cc1F [Example 122, (5-cyclopropyl-4-((3-(3,5-dichlorophenoxy)azetidin-1-yl)methyl)-2-fluorobenzoyl)-L-proline] | 430 nM | 2000 nM | – | ≥ 30000 nM
O=C(O)[C@@H]1CCCN1C(=O)c1cc(Cl)c(OC2C3CC4CC2CC(Cl)(C4)C3)cc1F (single isomer, unassigned) [Example 81] | 8900 nM | 16000 nM | – | ≥ 30000 nM
CC1(C)CCC(COc2cc(F)c(C(=O)N3CCC[C@H]3C(=O)O)cc2C2CC2)CC1 [Example 68, (S)-1-(5-cyclopropyl-4-((4,4-dimethylcyclohexyl)methoxy)-2-fluorobenzoyl)pyrrolidine-2-carboxylic acid] | 100 nM | 520 nM | 19000 nM | –
C[C@@H](c1cc(Cl)cc(Cl)c1)N1CCC(COc2cc(F)c(C(=O)N3CSC[C@H]3C(=O)O)cc2C2CC2)CC1 [Example 159, (4R)-3-[5-cyclopropyl-4-[[1-[(1S)-1-(3,5-dichlorophenyl)ethyl]-4-piperidyl]methoxy]-2-fluoro-benzoyl]thiazolidine-4-carboxylic acid] | 80 nM | 1000 nM | 17000 nM | –
